Experimental data published in patent publication US6358921B1, “Antimicrobial peptide compositions and method” (priority 1996, dated 2002).

Tests used:
C. Albicans = type: cell-based, Candida albicans
From the text: (§1) The following bacterial strains were utilized: Escherichia coli UB1005 (wt) and its antibiotic supersusceptible derivative DC2 (Clark, 1984); Excherichia coli SC9251 and its polymixin B rasistant mutant pmrA SC9252 (Peterson, et al., 1987) Pseudomonas aeruginosa H187 (wt) (Angus, et al., 1987) and its antibiotic-sensitive derivative H188 (Zimmerman, W, Antimicrob. Agents Chemother. 18: 94-100, 1980); methicillin sensitive Staphylococcus aureus K147 (Kreiswirth, et al., 1983); Staphylococcus aureus SAP0017, a methicillin resistant clinical isolate from Dr. A. Chow (University of British Columia); Bacillus subtilis, an environmental wt lab strain. Enterococcus faecalis are ATCC 29212 cells and Staphylococcus epidermidis was a clinical isolate from Dr. D. Speert (University of British Columbia). Antifungal activity was tested using a clinical lab isolate of Candida albicans. Salmonella typhinurium C57 and C610 (Fields, P.I., et al., Science 243: 1059-1062 (1989) Corynebacterium xerosis was an environmental isolate (University of British Columbia).
(§2) It is now apparent that agar-based assays severely underestimate antifungal activity as well as activity against gram negative microorganisms (Kondejewski, et al., 1996). Consequently, in the studies reported herein, a liquid-broth method was used to measure the antibiotic properties of the peptides. […] Briefly, cells were grown overnight at 37° C. in LB and diluted in the same medium. Serial dilutions of antibiotics were added to the microtitre plates in a volume of 100 μL followed by 10 μL of bacteria to give a final inoculum of 5×10^5 CFU/mL. Plates were incubated at 37° C. overnight and MICs determined as the lowest antibiotic concentration that inhibited growth. […]

E. coli UB1005 = type: cell-based, Escherichia coli; conditions: UB1005
From the text: as §1, §2

S. epidermidis = type: cell-based, Staphylococcus epidermidis
From the text: as §1, §2

C. xeroses = type: cell-based, Corynebacterium xerosis
From the text: as §1, §2

S. typhinurium C587 = type: cell-based, Salmonella typhinurium
From the text: as §1, §2

S. typhinurium C610 = type: cell-based, Salmonella typhinurium
From the text: as §1, §2

P. aeruginosa H187 = type: cell-based, Pseudomonas aeruginosa; conditions: H187
From the text: as §1
(§3) It is now apparent that agar-based assays severely underestimate antifungal activity as well as activity against gram negative microorganisms (Kondejewski, et al., 1996). Consequently, in the studies reported herein, a liquid-broth method was used to measure the antibiotic properties of the peptides. […] Briefly, cells were grown overnight at 37° C. in LB and diluted in the same medium. Serial dilutions of antibiotics were added to the microtitre plates in a volume of 100 μL followed by 10 μL of bacteria to give a final inoculum of 5×10^5 CFU/mL. Plates were incubated at 37° C. overnight and MICs determined as the lowest antibiotic concentration that inhibited growth.
(§4) The results from antimicrobial and hemolytic assays are combined to provide a “Therapeutic Index” (TI) for each peptide with respect to individual microorganisms. As reported herein, the TI is calculated as the hemolytic activity divided by the antimicrobial activity. The TI thus is a measure of specificity of the particular peptide for microbial membranes as opposed to human blood cell membranes. In the present studies, antimicrobial activities are reported as minimum inhibitory concentrations (MIC)—the lowest concentration of peptide (μg/ml) found to inhibit growth of the particular microbe. Hemolytic activity is reported as the concentration of peptide that effected complete lysis of blood cells after four hours. Thus, in the context of the present invention high TI values indicate microbial specificity and relative lack of toxicity.

S. aureus SAP0017 = type: cell-based, Staphylococcus aureus
From the text: as §1, §3, §4

S. aureus K147 = type: cell-based, Staphylococcus aureus
From the text: as §1, §3, §4

E. faecalis = type: cell-based, Enterococcus faecalis
From the text: as §1, §2

P. aeruginosa H188 = type: cell-based, Pseudomonas aeruginosa; conditions: H188
From the text: as §1, §2

E. coli DC2 = type: cell-based, Escherichia coli; conditions: DC2
From the text: as §1, §3, §4

[1] = Displacement of dansyl-polymyxin from LPS; type: binding, P. aeruginosa; conditions: read-out: LPS binding affinity: peptide concentration to displace 50% of dansyl-polymyxin B from LPS; Tables 1, 4, 7
From the text: In order to determine whether ring size affects the interaction between the peptide and bacterial membranes, we studied the interaction between the GS ring analogs and bacterial lipopolysaccharide (LPS). It has been shown previously that dansyl-polymixin (DPX) is a good probe for cationic binding sites on both purified LPS as well as whole bacterial cells (Example 8; Moore, et al., 1986; Sawyer, et al., 1988; Hancock, 1981). […] The LPS binding activity of various GS analogs was investigated, as discussed above.
Dansyl-polymixin (DPX) displacement from P. aeruginosa LPS was measured as described (Moore, et al., 1986). Briefly, peptides were titrated into cuvettes containing 3 μg of LPS per mL and 2.5 μM dansyl-polymixin (approximately 90% saturation of LPS binding sites) in 1 mL of 5 mM sodium HEPES buffer, pH 7.0, and the decrease in fluorescence recorded. A plot of the inverse of the percent inhibition as a function of the inverse of inhibitor concentration gave a value for I50, the inhibitor concentration resulting in 50% displacement of dansyl-polymixin from LPS (−1/× intercept).

B. subtilis = type: cell-based, Bacillus subtilis
From the text: as §1, §2

human erythrocytes = assay: Hemolytic activity; type: cell-based
Experimental: Serial dilutions of the peptides in saline were prepared in round bottom microtitre plates using 100 μL volumes. Red blood cells were diluted with saline to 1/25 packed volume of cells and 50 μL added to each well. Plates were incubated with rocking at 37° C., and the concentration required for complete lysis determined visually after 4 h.

CC(C)C[C@@H]1NC(=O)[C@H](CCCCN)NC(=O)[C@H](C(C)C)NC(=O)[C@@H]2CCCN2C(=O)[C@@H](Cc2ccc(O)cc2)NC(=O)[C@H](CC(C)C)NC(=O)[C@H](CCCCN)NC(=O)[C@H](C(C)C)NC(=O)[C@H](CCCCN)NC(=O)[C@H](CC(C)C)NC(=O)[C@H]2CCCN2C(=O)[C@@H](Cc2ccc(O)cc2)NC(=O)[C@H](C(C)C)NC(=O)[C@H](CCCCN)NC1=O [GS14P7]
Minimum Inhibitory Concentration (activity) (C. Albicans): 25 µg/mL | Minimum Inhibitory Concentration (activity) (E. coli UB1005): 200 µg/mL | Minimum Inhibitory Concentration (activity) (S. epidermidis): 6.2 µg/mL | Minimum Inhibitory Concentration (activity) (C. xeroses): 1 µg/mL | Minimum Inhibitory Concentration (activity) (S. typhinurium C587): >200 µg/mL | Minimum Inhibitory Concentration (activity) (S. typhinurium C610): 200 µg/mL | Minimum Inhibitory Concentration (activity) (P. aeruginosa H187): 200 µg/mL | Minimum Inhibitory Concentration (activity) (S. aureus SAP0017): >200 µg/mL | Minimum Inhibitory Concentration (activity) (S. aureus K147): >200 µg/mL | Minimum Inhibitory Concentration (activity) (E. faecalis): 6.2 µg/mL | Minimum Inhibitory Concentration (activity) (P. aeruginosa H188): 100 µg/mL | Minimum Inhibitory Concentration (activity) (E. coli DC2): 6.2 µg/mL | IC50 [1]: 18 µM | Minimum Inhibitory Concentration (activity) (B. subtilis): >200 µg/mL

CC(C)C[C@@H]1NC(=O)[C@H](CCCCN)NC(=O)[C@H](C(C)C)NC(=O)[C@H]2CCCN2C(=O)[C@@H](Cc2ccc(O)cc2)NC(=O)[C@H](CC(C)C)NC(=O)[C@H](CCCCN)NC(=O)[C@H](C(C)C)NC(=O)[C@H](CCCCN)NC(=O)[C@H](CC(C)C)NC(=O)[C@@H]2CCCN2C(=O)[C@@H](Cc2ccc(O)cc2)NC(=O)[C@H](C(C)C)NC(=O)[C@H](CCCCN)NC1=O [GS14P14]
Minimum Inhibitory Concentration (activity) (C. Albicans): 25 µg/mL | Minimum Inhibitory Concentration (activity) (E. coli UB1005): 100 µg/mL | Minimum Inhibitory Concentration (activity) (S. epidermidis): 6.2 µg/mL | Minimum Inhibitory Concentration (activity) (C. xeroses): 1 µg/mL | Minimum Inhibitory Concentration (activity) (S. typhinurium C587): >200 µg/mL | Minimum Inhibitory Concentration (activity) (S. typhinurium C610): >200 µg/mL | Minimum Inhibitory Concentration (activity) (P. aeruginosa H187): >200 µg/mL | Minimum Inhibitory Concentration (activity) (S. aureus SAP0017): >200 µg/mL | Minimum Inhibitory Concentration (activity) (S. aureus K147): >200 µg/mL | Minimum Inhibitory Concentration (activity) (E. faecalis): 6.2 µg/mL | Minimum Inhibitory Concentration (activity) (P. aeruginosa H188): 100 µg/mL | Minimum Inhibitory Concentration (activity) (E. coli DC2): 4 µg/mL | IC50 [1]: 20 µM | Minimum Inhibitory Concentration (activity) (B. subtilis): >200 µg/mL

CC(C)C[C@@H]1NC(=O)[C@H](CCCCN)NC(=O)[C@@H](C(C)C)NC(=O)[C@@H]2CCCN2C(=O)[C@@H](Cc2ccc(O)cc2)NC(=O)[C@H](CC(C)C)NC(=O)[C@H](CCCCN)NC(=O)[C@H](C(C)C)NC(=O)[C@H](CCCCN)NC(=O)[C@H](CC(C)C)NC(=O)[C@@H]2CCCN2C(=O)[C@@H](Cc2ccc(O)cc2)NC(=O)[C@H](C(C)C)NC(=O)[C@H](CCCCN)NC1=O [GS14V1]
Minimum Inhibitory Concentration (activity) (C. Albicans): 5 µg/mL | Minimum Inhibitory Concentration (activity) (E. coli UB1005): 6.2 µg/mL | Minimum Inhibitory Concentration (activity) (S. epidermidis): 3.1 µg/mL | Minimum Inhibitory Concentration (activity) (C. xeroses): 1.5 µg/mL | Minimum Inhibitory Concentration (activity) (S. typhinurium C587): 50 µg/mL | Minimum Inhibitory Concentration (activity) (S. typhinurium C610): 6.2 µg/mL | Minimum Inhibitory Concentration (activity) (P. aeruginosa H187): 60 µg/mL | Minimum Inhibitory Concentration (activity) (S. aureus SAP0017): 50 µg/mL | Minimum Inhibitory Concentration (activity) (S. aureus K147): 100 µg/mL | Minimum Inhibitory Concentration (activity) (E. faecalis): 1.5 µg/mL | Minimum Inhibitory Concentration (activity) (P. aeruginosa H188): 3.1 µg/mL | Minimum Inhibitory Concentration (activity) (E. coli DC2): 3.1 µg/mL | IC50 [1]: 41 µM | Minimum Inhibitory Concentration (activity) (B. subtilis): 50 µg/mL

CC(C)C[C@@H]1NC(=O)[C@H](CCCCN)NC(=O)[C@H](C(C)C)NC(=O)[C@@H]2CCCN2C(=O)[C@H](Cc2ccc(O)cc2)NC(=O)[C@H](CC(C)C)NC(=O)[C@H](CCCCN)NC(=O)[C@H](C(C)C)NC(=O)[C@H](CCCCN)NC(=O)[C@H](CC(C)C)NC(=O)[C@@H]2CCCN2C(=O)[C@@H](Cc2ccc(O)cc2)NC(=O)[C@H](C(C)C)NC(=O)[C@H](CCCCN)NC1=O [GS14Y13]
Minimum Inhibitory Concentration (activity) (C. Albicans): 25 µg/mL | Minimum Inhibitory Concentration (activity) (E. coli UB1005): 100 µg/mL | Minimum Inhibitory Concentration (activity) (S. epidermidis): 9 µg/mL | Minimum Inhibitory Concentration (activity) (C. xeroses): 1 µg/mL | Minimum Inhibitory Concentration (activity) (S. typhinurium C587): >200 µg/mL | Minimum Inhibitory Concentration (activity) (S. typhinurium C610): >200 µg/mL | Minimum Inhibitory Concentration (activity) (P. aeruginosa H187): >200 µg/mL | Minimum Inhibitory Concentration (activity) (S. aureus SAP0017): >200 µg/mL | Minimum Inhibitory Concentration (activity) (S. aureus K147): >200 µg/mL | Minimum Inhibitory Concentration (activity) (E. faecalis): 3.1 µg/mL | Minimum Inhibitory Concentration (activity) (P. aeruginosa H188): 100 µg/mL | Minimum Inhibitory Concentration (activity) (E. coli DC2): 3.1 µg/mL | IC50 [1]: 24 µM | Minimum Inhibitory Concentration (activity) (B. subtilis): >200 µg/mL

CC(C)C[C@@H]1NC(=O)[C@H](CCCCN)NC(=O)[C@H](C(C)C)NC(=O)[C@H](CCCCN)NC(=O)[C@@H]2CCCN2C(=O)[C@@H](Cc2ccc(O)cc2)NC(=O)[C@H](CCCCN)NC(=O)[C@H](CC(C)C)NC(=O)[C@H](CCCCN)NC(=O)[C@@H](C(C)C)NC(=O)[C@H](CCCCN)NC(=O)[C@@H]2CCCN2C(=O)[C@@H](Cc2ccc(O)cc2)NC(=O)[C@H](CCCCN)NC1=O [GS14invV2]
Minimum Inhibitory Concentration (activity) (C. Albicans): 200 µg/mL | Minimum Inhibitory Concentration (activity) (E. coli UB1005): 25 µg/mL | Minimum Inhibitory Concentration (activity) (S. epidermidis): 100 µg/mL | Minimum Inhibitory Concentration (activity) (C. xeroses): 6.2 µg/mL | Minimum Inhibitory Concentration (activity) (S. typhinurium C587): 200 µg/mL | Minimum Inhibitory Concentration (activity) (S. typhinurium C610): 37 µg/mL | Minimum Inhibitory Concentration (activity) (P. aeruginosa H187): 9 µg/mL | Minimum Inhibitory Concentration (activity) (S. aureus K147): >200 µg/mL | Minimum Inhibitory Concentration (activity) (E. faecalis): >200 µg/mL | Minimum Inhibitory Concentration (activity) (P. aeruginosa H188): 9 µg/mL | Hemolytic activity: peptide concentration for 100% lysis of human erythrocytes (human erythrocytes): 800 µg/mL | Minimum Inhibitory Concentration (activity) (E. coli DC2): 50 µg/mL | IC50 [1]: 71 µM | Minimum Inhibitory Concentration (activity) (B. subtilis): >200 µg/mL
